Source: patent US20140342914A1, “Method of Plant Growth with Bifenthrin” (priority 2013, published 2014)

Test system: Corn seeds
Experiment: Corn seedling growth enhancement, in-furrow application at different rates (Example 2)
Assay type: in vivo
Details: average of 8 replications
Text: Ten corn seeds (Pioneer variety 33M53, treated with PONCHO® 250 Insecticide) were evenly spaced in a single, 2 cm deep, furrow in a planter box (25.5 cm by 11.5 cm) containing steam treated loam soil (pH 6.4, 4.3% organic matter. An aqueous suspension of CAPTURE® LFR Insecticide (17.5% bifenthrin) was sprayed as a T-band in-furrow application onto the uncovered seeds at a rate of 269 g ai/ha using a DeVries overhead track sprayer at a pressure of 40 psi and an application volume of 200 l/ha. The seeds were covered with soil and the planter boxes placed onto a lab cart with overhead lighting set at 14 hours on and 10 hours off and a room temperature of 21° C. Three replicate planter boxes (total of 30 seeds) were treated and three control planter boxes to which no CAPTURE® Insecticide was applied were included in the test. Each planter box was watered with 146 mL of tap water and re-watered with 50 mL of tap water along the furrow at 4 days after treatment (DAT). At four DAT there were 19 emerged seedlings in the treated planter boxes and 16 emerged seedlings in the untreated planter boxes. At five DAT all seeds had emerged and the seedlings were removed from the soil and the roots were gently rinsed in tap water to remove the soil. The seedlings were placed onto paper and the roots and shoots were measured from the seed to the tip of the tallest leaf and from the seed to the tip of the longest root and each seedling was weighed. Table 1 below summarizes the average shoot height; root length and seedling wet weight of the treated and untreated seeds.
In a manner similar to Example 1, Corn seeds were treated in-furrow with different rates of CAPTURE® LFR or test solutions of technical bifenthrin (96% purity) dissolved in acetone and diluted with distilled water containing 0.1% Tween® 20 (Polyoxylethylene-sorbitan monolaurate available from SigmaAldrich). There were 8 replications of each treatment including the untreated control. Table 2 below summarizes the average shoot height, root length and seedling weight of the treated and untreated seeds.

Compound: Cc1c(COC(=O)[C@@H]2[C@H](/C=C(\Cl)C(F)(F)F)C2(C)C)cccc1-c1ccccc1 (racemic) [Technical Bifenthrin, 2-methylbiphenyl-3-ylmethyl (Z)-(1RS)-cis-3-(2-chloro-3,3,3-trifluoroprop-1-enyl)-2,2-dimethyl cyclopropanecarboxylate]
- Root Length (4.68 g ai/ha in-furrow): 20.8 cm
- Seedling Weight (4.68 g ai/ha in-furrow): 1.1 gm
- Shoot Height (4.68 g ai/ha in-furrow): 9.2 cm
- Root Length (18.75 g ai/ha in-furrow): 20.7 cm
- Seedling Weight (18.75 g ai/ha in-furrow): 1.1 gm
- Shoot Height (18.75 g ai/ha in-furrow): 9.5 cm
- Root Length (75 g ai/ha in-furrow): 21.5 cm
- Seedling Weight (75 g ai/ha in-furrow): 1.2 gm
- Shoot Height (75 g ai/ha in-furrow): 9.6 cm
- Root Length (300 g ai/ha in-furrow): 21.8 cm
- Seedling Weight (300 g ai/ha in-furrow): 1.1 gm
- Shoot Height (300 g ai/ha in-furrow): 9.5 cm
- Root Length (1200 g ai/ha in-furrow): 22.3 cm
- Seedling Weight (1200 g ai/ha in-furrow): 1.2 gm
- Shoot Height (1200 g ai/ha in-furrow): 9.9 cm
